{"source": "paper PMC6541369", "about": "“Stereo- and regioselective hydroboration of 1-exo-methylene pyranoses: discovery of aryltriazolylmethyl C-galactopyranosides as selective galectin-1 inhibitors” (Beilstein Journal of Organic Chemistry, 2019)", "key": {"galectin-3 [1]": {"target": "T1, galectin-3 (Homo sapiens, UniProt P17931)", "T1 construct": "made in house", "T1 sequence (P17931 whole entry)": "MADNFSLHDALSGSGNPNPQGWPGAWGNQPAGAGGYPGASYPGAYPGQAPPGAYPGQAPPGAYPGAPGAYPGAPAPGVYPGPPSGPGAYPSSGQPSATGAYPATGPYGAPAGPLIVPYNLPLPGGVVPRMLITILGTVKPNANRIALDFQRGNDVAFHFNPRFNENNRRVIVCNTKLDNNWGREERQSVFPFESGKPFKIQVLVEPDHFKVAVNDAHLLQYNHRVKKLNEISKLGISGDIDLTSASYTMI", "experiment": "competitive fluorescence polarization assay, galectin-3", "format": "binding", "settings": "galectin-3 0.2 µM, fluorescent probe 20 nM; for Kd: read-out: Dissociation constant KD ± SEM, galectin-3", "protocol": "Galectin-1, -3, -4C (C-terminal CRD), -4N (N-terminal CRD), -7, -8C, -8N, -9C, and -9N affinities for (aryltriazolyl)methyl galactopyranosyls 1a–n were determined in a competitive fluorescence polarization titration assay [[…]]. Compounds 1a–n had millimolar or higher affinities for all galectins except for galectins-1 and -3. […] Of particular interest is the different difluorinated aryls 1e–g, which show a reversed selectivity pattern. They display twofold preference for galectin-3 (1g), but their poor affinities limit their use as effective galectin-3 inhibitors. […] Monosaccharide derivatives with somewhat higher affinity for galectin-1 are known; dissociation constants down to 62 µM and selectivity of 8 over galectin-3 [34]. However, these inhibitors are larger and carry double modifications with an anomeric thiophenyl aglycon combined with a heteroaryltriazole moiety at galactose C3 that both form affinity and selectivity-enhancing interactions with galectin-1. Unfortunately, attempts to combine the anomeric 4-fluorophenyltriazolylmethyl moiety of compound 1b with such a galactose C3-thiazolyltriazole substituent reported to enhance affinity for galectin-1 [34] failed in our hands, why other additional substituents to combine with the 4-fluorophenyltriazolylmethyl moiety of compound 1b remain to be discovered.\n(§1) Human galectin-1 [36] and galectin-3 [37] were expressed and purified as earlier described. Fluorescence polarization experiments were performed on a PheraStarFS plate reader with software PHERAstar Mars version 2.10 R3 (BMG, Offenburg, Germany). Specific experimental conditions were a galectin-1 concentration of 0.5 µM together with the fluorescent probe (3,3’-dideoxy-3-[4-(fluorescein-5-ylcarbonylaminomethyl)-1H-1,2,3-triazol-1-yl]-3’-(3,5-dimethoxybenzamido)-1,1’-sulfanediyl-di-β-D-galactopyranoside) concentration of 20 nM and a galectin-3 concentration of 0.2 µM together with the fluorescent probe (3,3’-dideoxy-3-[4-(fluorescein-5-ylcarbonylaminomethyl)-1H-1,2,3-triazol-1-yl]-3’-(3,5-dimethoxybenzamido)-1,1’-sulfanediyl-di-β-D-galactopyranoside) concentration of 20 nM, respectively. […] Dissociation constants average and SEM were calculated from two to eight single point measurements showing between 20–80% inhibition."}, "Human galectin-1 [2]": {"target": "T2, Human galectin-1 (Homo sapiens, UniProt P09382)", "T2 construct": "made in house", "T2 sequence (P09382 whole entry)": "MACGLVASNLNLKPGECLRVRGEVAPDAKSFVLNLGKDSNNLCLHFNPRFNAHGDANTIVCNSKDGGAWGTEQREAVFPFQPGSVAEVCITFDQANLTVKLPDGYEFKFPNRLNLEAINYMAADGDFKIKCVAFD", "experiment": "competitive fluorescence polarization assay, galectin-1", "format": "binding", "settings": "for Kd: galectin-1 0.5 µM, fluorescent probe 20 nM, read-out: Dissociation constant KD ± SEM, galectin-1", "protocol": "Galectin-1, -3, -4C (C-terminal CRD), -4N (N-terminal CRD), -7, -8C, -8N, -9C, and -9N affinities for (aryltriazolyl)methyl galactopyranosyls 1a–n were determined in a competitive fluorescence polarization titration assay [[…]].\nas §1"}, "galectin-3 [3]": {"target": "T1, galectin-3", "set-up": "method as in PMID 15889175", "settings": "reference compounds; read-out: Dissociation constant KD, galectin-3; cited from earlier work"}, "Human galectin-1 [4]": {"target": "T2, Human galectin-1", "set-up": "method as in PMID 15889175", "settings": "reference compounds; read-out: Dissociation constant KD, galectin-1; cited from earlier work"}, "[5]": {"settings": "ratio of galectin-3 KD to galectin-1 KD"}}, "note": "Several values for one entry are separate records, joined by “and”; a condition that tells them apart may be missing. Equal values may be shown once. Read-outs that look alike come from different tables or passages of the source."}
{"smiles": "OC[C@H]1O[C@H](Cn2cc(-c3ccc4ccccc4c3)nn2)[C@H](O)[C@@H](O)[C@H]1O", "note": "[1n, 1,2-Dideoxy-1-(4-naphth-2-yl-1H-1,2,3-triazol-1-yl)-β-D-galactoheptulose]", "values": [{"measurement": "Kd", "setting": "galectin-3 [1]", "value": "1700 ± 190", "unit": "µM"}, {"measurement": "Kd", "setting": "Human galectin-1 [2]", "value": "1500 ± 290", "unit": "µM"}, {"measurement": "Selectivity Galectin-1/3", "setting": "Human galectin-1 [2]; [5]", "value": 1.1}]}
{"smiles": "Cc1ccc(-c2cn(C[C@H]3O[C@H](CO)[C@H](O)[C@H](O)[C@H]3O)nn2)cc1", "note": "[1h, 1,2-Dideoxy-1-[4-(4-methylphenyl)-1H-1,2,3-triazol-1-yl]-β-D-galactoheptulose]", "values": [{"measurement": "Dissociation constant KD ± SEM, galectin-3", "setting": "galectin-3 [1]", "value": "undetectable"}, {"measurement": "Kd", "setting": "galectin-3 [1]", "value": "> 3000", "unit": "µM"}, {"measurement": "Kd", "setting": "Human galectin-1 [2]", "value": "1000 ± 130", "unit": "µM"}, {"measurement": "Selectivity Galectin-1/3", "setting": "Human galectin-1 [2]; [5]", "value": ">3"}]}
{"smiles": "OC[C@H]1O[C@H](Cn2cc(-c3ccccc3F)nn2)[C@H](O)[C@@H](O)[C@H]1O", "note": "[1d, 1,2-Dideoxy-1-[4-(2-fluorophenyl)-1H-1,2,3-triazol-1-yl]-β-D-galactoheptulose]", "values": [{"measurement": "Kd", "setting": "galectin-3 [1]", "value": "500 ± 23", "unit": "µM"}, {"measurement": "Kd", "setting": "Human galectin-1 [2]", "value": "390 ± 38", "unit": "µM"}, {"measurement": "Selectivity Galectin-1/3", "setting": "Human galectin-1 [2]; [5]", "value": 1.3}]}
{"smiles": "OC[C@H]1O[C@H](Cn2cc(-c3cc(F)cc(F)c3)nn2)[C@H](O)[C@@H](O)[C@H]1O", "note": "[1f, 1,2-Dideoxy-1-[4-(3,5-difluorophenyl)-1H-1,2,3-triazol-1-yl]-β-D-galactoheptulose]", "values": [{"measurement": "Kd", "setting": "galectin-3 [1]", "value": "790 ± 48", "unit": "µM"}, {"measurement": "Kd", "setting": "Human galectin-1 [2]", "value": "1100 ± 43", "unit": "µM"}, {"measurement": "Selectivity Galectin-1/3", "setting": "Human galectin-1 [2]; [5]", "value": 0.7}]}
{"smiles": "OC[C@H]1O[C@@H](Cn2cc(-c3ccc(-c4ccccc4)cc3)nn2)[C@H](O)[C@@H](O)[C@H]1O", "note": "[1m, 1,2-Dideoxy-1-[4-(4-biphenyl)-1H-1,2,3-triazol-1-yl]-β-D-galactoheptulose]", "values": [{"measurement": "Kd", "setting": "galectin-3 [1]", "value": "1200 ± 11", "unit": "µM"}, {"measurement": "Kd", "setting": "Human galectin-1 [2]", "value": "710 ± 12", "unit": "µM"}, {"measurement": "Selectivity Galectin-1/3", "setting": "Human galectin-1 [2]; [5]", "value": 1.7}]}
{"smiles": "Cc1cccc(-c2cn(C[C@H]3O[C@H](CO)[C@H](O)[C@H](O)[C@H]3O)nn2)c1", "note": "[1i, 1,2-Dideoxy-1-[4-(3-methylphenyl)-1H-1,2,3-triazol-1-yl]-β-D-galactoheptulose]", "values": [{"measurement": "Dissociation constant KD ± SEM, galectin-3", "setting": "galectin-3 [1]", "value": "undetectable"}, {"measurement": "Kd", "setting": "galectin-3 [1]", "value": "> 3000", "unit": "µM"}, {"measurement": "Kd", "setting": "Human galectin-1 [2]", "value": "990 ± 23", "unit": "µM"}, {"measurement": "Selectivity Galectin-1/3", "setting": "Human galectin-1 [2]; [5]", "value": ">3"}]}
{"smiles": "OC[C@H]1O[C@H](Cn2cc(-c3ccc(F)cc3)nn2)[C@H](O)[C@@H](O)[C@H]1O", "note": "[1b, 1,2-Dideoxy-1-[4-(4-fluorophenyl)-1H-1,2,3-triazol-1-yl]-β-D-galactoheptulose]", "values": [{"measurement": "Kd", "setting": "galectin-3 [1]", "value": "710 ± 36", "unit": "µM"}, {"measurement": "Kd", "setting": "Human galectin-1 [2]", "value": "170 ± 2", "unit": "µM"}, {"measurement": "Selectivity Galectin-1/3", "setting": "Human galectin-1 [2]; [5]", "value": "4 and 4.2"}]}
{"smiles": "OC[C@H]1O[C@H](Cn2cc(-c3ccc(F)c(F)c3)nn2)[C@H](O)[C@@H](O)[C@H]1O", "note": "[1e, 1,2-Dideoxy-1-[4-(3,4-difluorophenyl)-1H-1,2,3-triazol-1-yl]-β-D-galactoheptulose]", "values": [{"measurement": "Kd", "setting": "galectin-3 [1]", "value": "610 ± 160", "unit": "µM"}, {"measurement": "Kd", "setting": "Human galectin-1 [2]", "value": "860 ± 150", "unit": "µM"}, {"measurement": "Selectivity Galectin-1/3", "setting": "Human galectin-1 [2]; [5]", "value": 0.7}]}
{"smiles": "OC[C@H]1O[C@H](Cn2cc(-c3cccc(F)c3)nn2)[C@H](O)[C@@H](O)[C@H]1O", "note": "[1c, 1,2-Dideoxy-1-[4-(3-fluorophenyl)-1H-1,2,3-triazol-1-yl]-β-D-galactoheptulose]", "values": [{"measurement": "Kd", "setting": "galectin-3 [1]", "value": "720 ± 64", "unit": "µM"}, {"measurement": "Kd", "setting": "Human galectin-1 [2]", "value": "1200 ± 120", "unit": "µM"}, {"measurement": "Selectivity Galectin-1/3", "setting": "Human galectin-1 [2]; [5]", "value": 0.6}]}
{"smiles": "OC[C@H]1O[C@H](Cn2cc(-c3ccc(F)cc3F)nn2)[C@H](O)[C@@H](O)[C@H]1O", "note": "[1g, 1,2-Dideoxy-1-[4-(2,4-difluorophenyl)-1H-1,2,3-triazol-1-yl]-β-D-galactoheptulose]", "values": [{"measurement": "Kd", "setting": "galectin-3 [1]", "value": "490 ± 55", "unit": "µM"}, {"measurement": "Kd", "setting": "Human galectin-1 [2]", "value": "1100 ± 16", "unit": "µM"}, {"measurement": "Selectivity Galectin-1/3", "setting": "Human galectin-1 [2]; [5]", "value": 0.4}]}
{"smiles": "OC[C@H]1O[C@H](Cn2cc(-c3ccc(C(F)(F)F)cc3)nn2)[C@H](O)[C@@H](O)[C@H]1O", "note": "[1k, 1,2-Dideoxy-1-[4-(4-trifluoromethylphenyl)-1H-1,2,3-triazol-1-yl]-β-D-galactoheptulose]", "values": [{"measurement": "Kd", "setting": "galectin-3 [1]", "value": "830 ± 38", "unit": "µM"}, {"measurement": "Kd", "setting": "Human galectin-1 [2]", "value": "240 ± 61", "unit": "µM"}, {"measurement": "Selectivity Galectin-1/3", "setting": "Human galectin-1 [2]; [5]", "value": 3.5}]}
{"smiles": "OC[C@H]1O[C@H](Cn2cc(-c3ccccc3)nn2)[C@H](O)[C@@H](O)[C@H]1O", "note": "[1a, 1,2-Dideoxy-1-(4-phenyl-1H-1,2,3-triazol-1-yl)-β-D-galactoheptulose]", "values": [{"measurement": "Kd", "setting": "galectin-3 [1]", "value": "870 ± 37", "unit": "µM"}, {"measurement": "Kd", "setting": "Human galectin-1 [2]", "value": "600 ± 48", "unit": "µM"}, {"measurement": "Selectivity Galectin-1/3", "setting": "Human galectin-1 [2]; [5]", "value": 1.5}]}
{"smiles": "OC[C@H]1O[C@H](Cn2cc(-c3ccc(OC(F)(F)F)cc3)nn2)[C@H](O)[C@@H](O)[C@H]1O", "note": "[1j, 1,2-Dideoxy-1-[4-(4-trifluoromethoxyphenyl)-1H-1,2,3-triazol-1-yl]-β-D-galactoheptulose]", "values": [{"measurement": "Kd", "setting": "galectin-3 [1]", "value": "700 ± 52", "unit": "µM"}, {"measurement": "Kd", "setting": "Human galectin-1 [2]", "value": "500 ± 59", "unit": "µM"}, {"measurement": "Selectivity Galectin-1/3", "setting": "Human galectin-1 [2]; [5]", "value": 1.4}]}
{"smiles": "OC[C@H]1O[C@H](Cn2cc(-c3cccc4ccccc34)nn2)[C@H](O)[C@@H](O)[C@H]1O", "note": "[1l, 1,2-Dideoxy-1-(4-naphth-1-yl-1H-1,2,3-triazol-1-yl)-β-D-galactoheptulose]", "values": [{"measurement": "Kd", "setting": "galectin-3 [1]", "value": "470 ± 95", "unit": "µM"}, {"measurement": "Kd", "setting": "Human galectin-1 [2]", "value": "180 ± 20", "unit": "µM"}, {"measurement": "Selectivity Galectin-1/3", "setting": "Human galectin-1 [2]; [5]", "value": 2.6}]}
{"smiles": "CO[C@@H]1O[C@H](CO)[C@@H](O[C@@H]2O[C@H](CO)[C@H](O)[C@H](O)[C@H]2O)[C@H](O)[C@H]1O", "note": "[compound 12, methyl β-lactoside]", "values": [{"measurement": "Kd", "setting": "galectin-3 [3]", "value": 220, "unit": "µM"}, {"measurement": "Kd", "setting": "Human galectin-1 [4]", "value": 190, "unit": "µM"}, {"measurement": "Selectivity Galectin-1/3", "setting": "Human galectin-1 [2]; reference compounds, ratio from KD values of ref 35", "value": 1.2}]}
